Source: patent publication US10626116B2, “Crystalline form of BTK kinase inhibitor and preparation method thereof” (Jiangsu Hengrui Medicine Co., Ltd., priority 2016, dated 2020)

Key:
[1] = Stability under lighting, heating and high humidity; purity detected by HPLC; assay type: physicochemical; conditions: for Purity by HPLC, 40° C.: heating 40° C.; for Purity by HPLC, 40° C. / Purity by HPLC, 60° C. / Purity by HPLC, RH 75% / Purity by HPLC, RH 90% / Purity by HPLC, Lighting: spread flat in the air; for Purity by HPLC, 60° C.: heating 60° C.; for Purity by HPLC, RH 75%: high humidity RH 75%; for Purity by HPLC, RH 90%: high humidity RH 90%; for Purity by HPLC, Lighting: lighting 4500 Lux
Protocol: The sample of amorphous form prepared in Example 1 and the sample of crystal form I prepared in Example 2 were spread flat in the air to test their stability under conditions of lighting (4500 Lux), heating (40° C., 60° C.), and high humidity (RH 75%, RH 90%), respectively. Samplings were carried out on Day 5 and Day 10.

[2] = Special stability study of crystal form I (grinding, heating, tableting); assay type: physicochemical
Description: Crystal form I of the compound of formula (I) prepared according to the method of Example 2 was ground, heated and tableted.

[3] = Grinding treatment for 10 minutes in a mortar under nitrogen atmosphere, batch 20150427G
[4] = Heating treatment for 3 hours at 80° C., batch 20150427H
[5] = Tableting treatment, batch 20150427P

CC#CC(=O)N1CC[C@@H](n2cc(-c3ccc(Oc4c(F)cccc4F)cc3)c3c(N)n[nH]c(=O)c32)C1 [Crystal form I, (R)-4-amino-1-(1-(but-2-ynoyl)pyrrolidin-3-yl)-3-(4-(2,6-difluorophenoxy)phenyl)-1H-pyrrolo[2,3-d]pyridazin-7(6H)-one]
Stability compared with the amorphous sample ([1]; conditions of lighting, high temperature and high humidity): significantly better than that of the amorphous sample | Purity by HPLC, 40° C. ([1]; Day 0): 99.21% | Purity by HPLC, 40° C. ([1]; Day 5): 99.28% | Purity by HPLC, 40° C. ([1]; Day 10): 99.35% | Purity by HPLC, 60° C. ([1]; Day 0): 99.21% | Purity by HPLC, 60° C. ([1]; Day 5): 99.26% | Purity by HPLC, 60° C. ([1]; Day 10): 99.25% | Purity by HPLC, RH 75% ([1]; Day 0): 99.21% | Purity by HPLC, RH 75% ([1]; Day 5): 99.30% | Purity by HPLC, RH 75% ([1]; Day 10): 99.25% | Purity by HPLC, RH 90% ([1]; Day 0): 99.21% | Purity by HPLC, RH 90% ([1]; Day 5): 99.30% | Purity by HPLC, RH 90% ([1]; Day 10): 99.32% | Purity by HPLC, Lighting ([1]; Day 0): 99.21% | Purity by HPLC, Lighting ([1]; Day 5): 99.26% | Purity by HPLC, Lighting ([1]; Day 10): 99.25% | Crystal form after treatment [2, 3]: Crystal | DSC peak after treatment [2, 3]: 239.32 °C | Crystal form after treatment [2, 4]: Crystal | DSC peak after treatment [2, 4]: 238.98 °C | Crystal form after treatment [2, 5]: Crystal | DSC peak after treatment [2, 5]: 241.19 °C | Stability of the crystal form ([2]; ground, heated and tableted (grinding, pressure and heating)): stable

CC#CC(=O)N1CC[C@@H](n2cc(-c3ccc(Oc4c(F)cccc4F)cc3)c3c(N)n[nH]c(=O)c32)C1 [Amorphous form, (R)-4-amino-1-(1-(but-2-ynoyl)pyrrolidin-3-yl)-3-(4-(2,6-difluorophenoxy)phenyl)-1H-pyrrolo[2,3-d]pyridazin-7(6H)-one]
Purity by HPLC, 40° C. ([1]; Day 0): 97.70% | Purity by HPLC, 40° C. ([1]; Day 5): 97.64% | Purity by HPLC, 40° C. ([1]; Day 10): 97.57% | Purity by HPLC, 60° C. ([1]; Day 0): 97.70% | Purity by HPLC, 60° C. ([1]; Day 5): 97.68% | Purity by HPLC, 60° C. ([1]; Day 10): 97.52% | Purity by HPLC, RH 75% ([1]; Day 0): 97.70% | Purity by HPLC, RH 75% ([1]; Day 5): 97.52% | Purity by HPLC, RH 75% ([1]; Day 10): 97.59% | Purity by HPLC, RH 90% ([1]; Day 0): 97.70% | Purity by HPLC, RH 90% ([1]; Day 5): 97.50% | Purity by HPLC, RH 90% ([1]; Day 10): 97.48% | Purity by HPLC, Lighting ([1]; Day 0): 97.70% | Purity by HPLC, Lighting ([1]; Day 5): 97.67% | Purity by HPLC, Lighting ([1]; Day 10): 97.62%
